# Data from patent publication EP0592876A1, “Antimycotic dermatological and cosmetic compositions” (Beiersdorf Aktiengesellschaft, priority 1992, dated 1994).
# System: Pityrosporum ovale
# Experiment: agar diffusion inhibition-zone test (Hemmhof-Test)
# Type: cell-based
# Procedure: TY-Medium 10 g Trypton + 5 g Hefeextrakt + 10 g NaCl, aufgelöst in 1000 ml H₂O, gepuffert auf pH 7,4 , autoklaviert. Testverbindung 1: Polyoxyethylen-20-stearylether Testverbindung 2: Polyoxyethylen-20-isostearylalkohol Testverbindung 3: Polyoxyethylen-21-stearylalkohl Testverbindung 4: Polyoxyethylen-5-cetyl/stearylether Testverbindung 5: Polyoxyethylen-25-Fettalkohol Testverbindung 6: Polyoxyethylen-6-cetyl/stearylether Testverbindung 7: Polyoxyethylen-C₁₂-C₁₅-Alkylether Pityrosporum ovale, isoliert von drei Patienten mit Pityrosporum-Follikulitis, Pityriasis versicolor oder seborrhoischem Ekzem wurde in einer Mischung aus 50 % TY-Medium, 30 % Olivenöl und 20 % Tween 80 suspendiert. Die drei verschiedenen Hefestämme wurden in drei parallelen Ansätzen auf einer Selektivagarplatte für pathogene Pilze (Merck AG, Darmstadt) gleichmäßig ausgespatelt. Mit Hilfe steriler Korkbohrer wurden in jede Platte mehrere kreisrunde Vertiefungen gestanzt, In die Vertiefungen mit einem Durchmesser von 5 mm wurden jeweils 25 µl der Testlösungen gegeben. Die Testlösungen stellten 1%-ige und 10%-ige Lösungen der Testsubstanzen in Ethanol dar.
# Nach dreistündiger Inkubation bei 37° C wurde das verdunstete Lösungsmittel durch je 25 µl Jojobaöl ersetzt und die Platten anschließend unter Beibehaltung der Wachstumsbedingungen drei Tage inkubiert. Während dieser Zeit diffundierten die Testsubstanzen in den die Vertiefungen umgebenden Nährboden.
# Antimycotisch wirksame Testverbindungen zeigten nach dreitägiger Inkubation einen mehr oder weniger deutlichen konzentrischen Hemmhof um die Vertiefungen. Die Größe dieser Hemmhöfe, wiedergegeben in Tabelle 1, ist bei vergleichbarer Substanzkonzentration ein Maß für die antimycotische Wirksamkeit der Testverbindungen. Tabelle 1
# Testverbindung 8 : Polyoxyethylen-[…]-Dodecylether Testverbindung 9 : Polyoxyethylen-20-Stearylether Testverbindung 10: Polyoxyethylen-20-isostearylalkohol Testverbindung 11: Polyoxyethylen-21-stearylalkohol Testverbindung 12: Polyoxyethylen-5-Cetyl/stearylether Testverbindung 13: Polyoxyethylen-25-Fettalkohol Testverbindung 14: Polyoxyethylen-6-Cetyl/Stearylether + Stearylalkohol Testverbindung 15: Polyoxyethylen-C₁₂-C₁₅-Alkylether Von den Testverbindungen 8 - 15 wurden ethanolische Lösungen der Konzentrationen 0,5 %, 1,0 %, 5,0 % und 10,0 % hergestellt und in den Hemmhof-Test eingeführt. Die Versuchsdurchführung entspricht in ihrem Ablaufe dem zu Versuch 1 geschilderten. Die Größe der betreffenden Hemmhöfe ist in Tabelle 2 wiedergegeben. Tabelle 2
# [1] = Versuch 2, Konz. 0,5 % ethanolic solution, procedure as Versuch 1
# [2] = Versuch 2, Konz. 1,0 % ethanolic solution, procedure as Versuch 1
# [3] = Versuch 2, Konz. 5,0 % ethanolic solution, procedure as Versuch 1
# [4] = Versuch 2, Konz. 10,0 % ethanolic solution, procedure as Versuch 1
# [5] = Versuch 1, 1%-ige Lösung in Ethanol, 25 µl per 5 mm well, three days incubation at 37° C, three strains isolated from patients
# [6] = Versuch 1, 10%-ige Lösung in Ethanol, 25 µl per 5 mm well, three days incubation at 37° C, three strains isolated from patients
Substance,mittlerer Hemmhof-Durchmesser [1],mittlerer Hemmhof-Durchmesser [2],mittlerer Hemmhof-Durchmesser [3],mittlerer Hemmhof-Durchmesser [4],mittlerer Hemmhof-Durchmesser [5],mittlerer Hemmhof-Durchmesser [6]
Polyoxyethylen-??-Dodecylether [Testlösung 8],"14,0 mm","15,5 mm","18,0 mm","20,7 mm",,
Polyoxyethylen-C₁₂-C₁₅-Alkylether [Testlösung 15],"9,0 mm","12,7 mm","17,0 mm","20,0 mm",,
Polyoxyethylen-20-Stearylether [Testlösung 9],"10,7 mm","14,0 mm","18,7 mm","20,7 mm",,
Polyoxyethylen-20-stearylether [Testlösung 1],,,,,"10,0 mm","15,5 mm"
Polyoxyethylen-5-cetyl/stearylether [Testlösung 4],,,,,"8,5 mm","9,5 mm"
Polyoxyethylen-20-isostearylalkohol [Testlösung 10],"9,0 mm","9,0 mm","15,0 mm","17,3 mm",,
Polyoxyethylen-25-Fettalkohol [Testlösung 5],,,,,"7,0 mm","13,0 mm"
Polyoxyethylen-C₁₂-C₁₅-Alkylether [Testlösung 7],,,,,"9,5 mm","15,0 mm"
Polyoxyethylen-25-Fettalkohol [Testlösung 13],"10,0 mm","11,5 mm","15,7 mm","18,3 mm",,
Polyoxyethylen-21-stearylalkohol [Testlösung 11],"10,0 mm","11,7 mm","12,0 mm","12,7 mm",,
Polyoxyethylen-20-isostearylalkohol [Testlösung 2],,,,,"11,0 mm","12,0 mm"
Polyoxyethylen-21-stearylalkohl [Testlösung 3],,,,,"7,0 mm","11,0 mm"
Polyoxyethylen-6-cetyl/stearylether [Testlösung 6],,,,,"9,5 mm","14,0 mm"
Polyoxyethylen-5-Cetyl/stearylether [Testlösung 12],"11,0 mm","14,0 mm","16,5 mm","16,5 mm",,
